{"source": "patent US10213443B2", "about": "“Tetracycline topical formulations, preparation and uses thereof in treating an ocular condition” (Hovione International Ltd., priority 2012, dated 2019)", "origin": "cited, not measured here", "key": {"[1]": {"settings": "in man"}, "[2]": {"settings": "compared with doxycycline"}}}
{"smiles": "CN(C)c1ccc(O)c2c1C[C@H]1C[C@H]3[C@H](N(C)C)C(O)=C(C(N)=O)C(=O)[C@@]3(O)C(O)=C1C2=O", "note": "[Minocycline, minocycline]", "values": [{"measurement": "oral bioavailability", "setting": "[1]", "value": "~100", "unit": "%"}, {"measurement": "phototoxicity", "setting": "[2]", "value": "not phototoxic"}]}
